Measured values taken from ChEMBL document CHEMBL6153134, “Anti-inflammatory and Hepatoprotective Iridoid Glycosides from the Roots of Gomphandra mollis” (J Nat Prod, 2025).

Legend:
Type in all cases: functional
HepG2 [1] = experiment: Hepatoprotective activity against APAP-induced cytotoxicity in human HepG2 cells assessed as cell viability at 40 uM pretreated for 8 hrs followed by APAP addition for 36 hrs by MTT assay (reference value: 68.1%); conditions: time 44 hrs, read-out: Activity
HepG2 [2] = experiment: Hepatoprotective activity against APAP-induced cytotoxicity in human HepG2 cells assessed as cell viability at 40 to 80 uM pretreated for 8 hrs followed by APAP addition for 36 hrs by MTT assay (reference value: 68.1%); conditions: dose 40-80 µM, time 44 hrs
HepG2 [3] = experiment: Hepatoprotective activity against APAP-induced cytotoxicity in human HepG2 cells assessed as cell viability at 50 ug/mL pretreated for 8 hrs followed by APAP addition for 36 hrs by MTT assay (reference value: 68.1%); conditions: time 44 hrs, read-out: Activity

With C=CC1C(CC(OC)OC)C(C(=O)O[C@H]2CC3C(C(=O)OC)=CO[C@@H](O[C@@H]4O[C@H](CO)[C@@H](O)[C@H](O)[C@H]4O)C3[C@H]2C)=CO[C@H]1O[C@@H]1O[C@H](CO)[C@@H](O)[C@H](O)[C@H]1O (stereo partly specified) the viability at 40 µM (HepG2 [1]) was 75.6%.

C=C[C@H]1[C@H](O[C@@H]2O[C@H](CO)[C@@H](O)[C@H](O)[C@H]2O)OC=C(C(=O)O[C@H]2C[C@@H]3C(C(=O)OC)=CO[C@@H](O[C@@H]4O[C@H](CO)[C@@H](O)[C@H](O)[C@H]4O)[C@@H]3[C@H]2C)[C@H]1C[C@@H]1O[C@@H]2[C@@H](O)[C@@H](OC[C@H]3O[C@@](CO)(O[C@H]4O[C@H](CO)[C@@H](O)[C@H](O)[C@H]4O)[C@@H](O)[C@@H]3O)O[C@H](CO)[C@@H]2O1 gave an Activity (HepG2 [2]) of 75.6%.

For C=C[C@H]1[C@H](O[C@@H]2O[C@H](CO)[C@@H](O)[C@H](O)[C@H]2O)OC=C(C(=O)O[C@H]2C[C@@H]3CCOC(=O)[C@@H]3[C@H]2C)[C@H]1C[C@@H](O)O[C@@H](O)C[C@@H]1C(C(=O)O[C@H]2C[C@@H]3CCOC(=O)[C@@H]3[C@H]2C)=CO[C@@H](O[C@@H]2O[C@H](CO)[C@@H](O)[C@H](O)[C@H]2O)[C@@H]1C=C, the viability at 40 µM (HepG2 [1]) was 75.6%.

With C=C[C@H]1[C@H](O[C@@H]2O[C@H](CO)[C@@H](O)[C@H](O)[C@H]2O)OC=C(C(=O)O[C@H]2C[C@@H]3C(C(=O)OC)=CO[C@@H](O[C@@H]4O[C@H](CO)[C@@H](O)[C@H](O)[C@H]4O)[C@@H]3[C@H]2C)[C@H]1CC=O the Activity (HepG2 [2]) was 75.6%.

With COc1cc([C@H]2Oc3cc([C@H]4Oc5cc(O)cc(O)c5C(=O)[C@@H]4O)ccc3O[C@@H]2CO)ccc1O [SILYBIN A] the viability at 50 µg/mL (HepG2 [3]) was 90.9%.

Work on C=C[C@H]1[C@H](O[C@@H]2O[C@H](CO)[C@@H](O)[C@H](O)[C@H]2O)OC=C2C(=O)OCC[C@H]21 [SWEROSIDE] yielded an Activity (HepG2 [2]) of 75.6%.
